Experimental data as given in patent US10913757B2, “Hydroxycinnamic derivatives, methods and uses thereof” (UNIVERSIDADE DO PORTO, priority 2016, dated 2021).
“Also recorded” adds a separate entry of the source.

What was measured:
[1] = test system: mitochondrial permeability transition pore (mPTP) of RLM; assay: Mitochondrial permeability transition pore (mPTP) opening, mitochondrial swelling; format: biochemical, rat; conditions: 2.5, 5 and 10 μM, pre-incubated 5 min before calcium, FIG. 7A-C
Method: In an embodiment, the AntiOxCINs effects on mitochondrial permeability transition pore (mPTP) opening were evaluated. In general, less lipophilic AntiOxCINs had no effect on mPTP opening for all tested concentrations (FIG. 7A-C).
In an embodiment, the evaluation of AntiOxCINs functional mitochondrial toxicity profile was performed in rat liver mitochondria (RLM). RLM were prepared by tissue homogenization followed by differential centrifugations in ice-cold buffer containing 250 mM sucrose, 10 mM HEPES (pH 7.4), 1 mM EGTA, and 0.1% fat-free bovine serum albumin. After obtaining a crude mitochondrial preparation, pellets were washed twice and resuspended in washing buffer (250 mM sucrose and 10 mM HEPES, pH 7.4). The protein concentration was determined by the biuret assay using BSA as a standard.
In an embodiment, the effect of AntiOxCINs on mitochondrial permeability transition pore opening were measured as follows: mitochondrial swelling was estimated by measuring the alterations of light scattered from a mitochondrial suspension, as monitored spectrophotometrically at 540 nm. Increasing concentrations of AntiOxCINs (2.5-10 μM) were added to the reaction medium (200 mM sucrose, 1 mM KH2PO4, 10 mM Tris (pH 7.4), 5 mM succinate and 10 μM EGTA supplemented with 1.5 μM rotenone), in the presence of RLM (1 mg), and allowed to incubate for a 5 min period before the assay. The experiments were initiated by the addition of a suitable concentration of Ca^2+ (15-50 μM), titrated every day. […] The reaction was stirred continuously and the temperature maintained at 37° C. Data are means±SEM of three independent experiments and are expressed as Aabsorbance at 540 nm.

[2] = test system: HepG2 cells; assay: Cytotoxicity screening in HepG2 cells, SRB assay; format: cell-based, human; conditions: HepG2, 48 hour
Method: In an embodiment, and as an example, the cytotoxicity of two AntiOxCINs (AntiOxCIN4 and AntiOxCIN6) was assessed using monolayer cultures of human hepatocytes from hepatocellular carcinoma (HepG2) and SRB method (FIG. 8A). […] Remarkably, at concentrations higher than 2.5 μM AntiOxCIN6 inhibited cell proliferation, while at concentrations higher than 100 μM AntiOxCIN4 stimulated cell proliferation.
(§1) In an embodiment, the cytotoxicity profile of AntiOxCIN4 and AntiOxCIN6 was evaluated in human hepatocellular carcinoma HepG2 cells. Human hepatocellular carcinoma HepG2 cells were cultured in high-glucose medium composed by Dulbecco's modified Eagle's medium (DMEM; D5648) supplemented with sodium pyruvate (0.11 g/L), sodium bicarbonate (1.8 g/L) and 10% fetal bovine serum (FBS) and 1% of antibiotic penicillin-streptomycin 100× solution. Cells were maintained at 37° C. in a humidified incubator with 5% CO2. HepG2 cells were seeded at density of 4×10^4 cells/mL and grown for 24 hours before treatment.
In an embodiment the cytotoxicity screening was performed as follows: cells were placed on 48-well plate (2×10^4 cells/500 μL) and then were incubated during 48 hour with AntiOxCIN4 and AntiOxCIN6 concentrations ranging 25 μM to 500 μM or 0.5 μM to 25 μM, respectively. After incubation, sulforhodamine B (SRB) assay was used for cell density determination based on the measurement of cellular protein content. Briefly, after incubation, the medium was removed and wells rinsed with PBS (1×). Cells were fixed by adding 1% acetic acid in 100% methanol for at least 2 hours at −20° C. Later, the fixation solution was discarded and the plates were dried in an oven at 37° C. […] Finally, 200 μl of each supernatant was transferred in 96-well plates and optical density was measured at 540 nm. Data are means±SEM of four independent experiments and the results are expressed as percentage of control (control=100%), which represents the cell density without any treatment in the respective time point.

[3] = test system: HepG2 cells; assay: Cellular antioxidant screening in HepG2 cells (FeSO4 or H2O2), SRB assay; format: cell-based, human; conditions: pre-incubated 1 hour, AntiOxCIN4 100 μM, AntiOxCIN6 2.5 μM; for prevention of iron-induced HepG2 cytotoxicity (cell proliferation): 250 μM FeSO4 48 h; for prevention of hydrogen peroxide-induced HepG2 cytotoxicity (cell proliferation): 250 μM H2O2 48 h
Method: In an embodiment, as an example, the antioxidant cellular outline of AntiOxCIN4 and AntiOxCIN6 was assessed using monolayer cultures of human hepatocytes from hepatocellular carcinoma (HepG2) and two different oxidative stressors (250 μM FeSO4 or 250 μM H2O2) (FIG. 8B). […] The higher efficacy of AntiOxCIN4 is in agreement with the data attained from TAC assays (Table 1) and RLM assays (FIG. 4).
as §1
In an embodiment, the cellular antioxidant screening was performed as follows: cells were placed on 48-well plate (2×10^4 cells/500 μL) and pre-incubated with non-toxic concentrations of AntiOxCIN4 (100 μM) or AntiOxCIN6 (2.5 μM) for 1 hour. After the incubation time, cells were exposed to oxidative stress conditions by the addition of 250 μM FeSO4 or 250 μM H2O2 for 48 hours. At the end of incubation time, SRB assay was used for cell density determination as previously described. Data are means±SEM of four independent experiments. The results are expressed as percentage of control (control=100%), which represents the cell density without any treatment in the respective time point.

[4] = test system: HepG2 cells; assay: Morphological alterations in HepG2 cells, vital epifluorescence microscopy (TMRM, Hoechst 33342); format: cell-based, human; conditions: HepG2, 48 h; AntiOxCIN4 100 μM, AntiOxCIN6 2.5 μM, FIG. 8C; methanesulfonate
Method: In an embodiment, as an example, the morphological changes in mitochondrial network and nuclei chromatin condensation of AntiOxCIN4 and AntiOxCIN6 have been determined. HepG2 cells were treated with AntiOxCINs for 48 h and then incubated with the mitochondrialΔΨ-dependent fluorescent probes TMRM and DNA dye Hoechst 33342.
In an embodiment, the detection of morphological alterations, including chromatin condensation and mitochondrial polarization and distribution by vital epifluorescence microscopy was performed as follows: cells were placed in 6-well plates with a glass coverslip per well (8×10^4 cells/2 mL) and then treated with non-toxic concentrations of AntiOxCIN4 or AntiOxCIN6 for 48 hours. Thirty minutes prior the end of the incubation time, the mitochondrial network was stained with TMRM (100 nM) while nuclei were stained with Hoechst 33342 (1 μg/mL), to detect apoptotic chromatin condensation, in HBSS (NaCl 137 mM, KCl 5.4 mM, NaHCO3 4.2 mM, Na2HPO4 0.3 mM, KH2PO4 0.4 mM, CaCl2 1.3 mM, MgCl2 0.5 mM, MgSO4 0.6 mM, and D-glucose 5.6 mM, pH 7.4) at 37° C. under dark conditions. Glass coverslips were removed from the wells and placed on glass slides with a drop of mounting medium. The cell images were acquired using a Zeiss LSM 510Meta microscope and analysed with ImageJ software 1.49v. […]

Compound	effect on calcium-dependent mPTP opening [1]	concentration above which cell proliferation was stimulated ([2]; FIG. 8A)	prevention of iron-induced HepG2 cytotoxicity (cell proliferation) [3]	prevention of hydrogen peroxide-induced HepG2 cytotoxicity (cell proliferation) [3]	nuclear morphology and mitochondrial polarization [4]	toxicity toward HepG2 cells (comparison) [2]	concentration above which cell proliferation was inhibited ([2]; FIG. 8A)
CS(=O)(=O)[O-].O=C(/C=C/c1ccc(O)c(O)c1)NCCCCCCCC[P+](c1ccccc1)(c1ccccc1)c1ccccc1 [AntiOxCIN3, (E)-(8-(3-(3,4-dihydroxyphenyl)acrylamido)octyl)triphenylphosphoniummethanesulfonate]	inhibition of calcium-dependent mPTP opening						
CS(=O)(=O)[O-].O=C(/C=C/c1cc(O)c(O)c(O)c1)NCCCCCC[P+](c1ccccc1)(c1ccccc1)c1ccccc1 [AntiOxCIN4, (E)-(6-(3-(3,4,5-trihydroxyphenyl)prop-2-enamido)hexyl)triphenylphosphonium methanesulfonate]		higher than 100 μM	significantly prevented	significantly prevented	did not induce nuclear morphological changes neither mitochondrial depolarization; also recorded: did not disturb the normal nuclear morphology and mitochondrial polarization		
CS(=O)(=O)[O-].O=C(/C=C/c1cc(O)c(O)c(O)c1)NCCCCCCCC[P+](c1ccccc1)(c1ccccc1)c1ccccc1 [AntiOxCIN5, (E)-(8-(3-(3,4,5-trihydroxyphenyl)acrylamido)octyl)triphenylphosphonium methanesulfonate]	inhibition of calcium-dependent mPTP opening						
CS(=O)(=O)[O-].O=C(/C=C/c1ccc(O)c(O)c1)NCCCCCCCCCC[P+](c1ccccc1)(c1ccccc1)c1ccccc1 [AntiOxCIN6, (E)-(10-(3-(3,4-dihydroxyphenyl)acrylamido)decyl)triphenylphosphonium methanesulfonate]	inhibition of calcium-dependent mPTP opening		significantly prevented	significantly prevented	did not induce nuclear morphological changes neither mitochondrial depolarization; also recorded: did not disturb the normal nuclear morphology and mitochondrial polarization	higher toxicity than AntiOxCIN4	higher than 2.5 μM
CS(=O)(=O)[O-].O=C(/C=C/c1cc(O)c(O)c(O)c1)NCCCCCCCCCC[P+](c1ccccc1)(c1ccccc1)c1ccccc1 [AntiOxCIN7, (E)-(10-(3-(3,4,5-trihydroxyphenyl)acrylamido)decyl)triphenylphosphonium methanesulfonate]	inhibition of calcium-dependent mPTP opening						
